How the values were obtained:
[1] = tested on: HaCaT cell line; test: TUNEL analysis of apoptosis; assay type: cell-based, human; settings: 10 μg/ml, 24 hours, control: only a limited part, FIG. 2E
Procedure: A HaCaT cell line was cultured in the same manner as described in Example 1. The cultured HaCaT cell line was plated onto a 60 mm plate at a concentration of 5×10^4 cells/well, and cultured in a CO2 incubator (37° C., 5%) for 24 hours. The cultured cells were treated with pachastrissamine at a concentration of 10 μg/ml, cultured in a CO2 incubator (37° C., 5%) for 24 hours, and subjected to TUNEL analysis.
In order to carry out TUNEL analysis based on ApopTagFluorescein In Situ Apoptosis Detection Kit (Millipore), cells were cultured in a cover slip, and washed with PBS (pH 7.4). In order to completely fix cells, the cells were reacted in a PBS solution including 4% paraformaldehyde at room temperature for 30 minutes. Then, in order to make the cells permeable, the cells were washed with a PBS solution, and reacted in a PBS solution including 0.1% Triton X-100 at room temperature for 5 minutes. For cell marking, the cells were washed with PBS twice, and then diluted TUNEL reaction mixture was added to the cover slip. After incubating in a humidified chamber at 37° C. for 60 minutes, the cover slip was washed. The washed cover slip was reacted with a DAPI solution at room temperature for about 10 minutes, washed with PBS, mounted on a slide, sufficiently dried in a dark place, and analyzed by a fluorescent microscope. […]

[2] = tested on: malignant melanoma cell line B16F10; test: Mouse malignant melanoma (B16F10) lung metastasis model; assay type: in vivo; settings: C57BL6 mouse, B16F10 1×10^6 via tail vein; inoculated once per 4 days (three times); lung on 14th day; FIG. 6
Procedure: In a C57BL6 mouse, pachastrissamine's effect on malignant melanoma metastasis inhibition was researched. A mouse (aged 6 weeks) was inoculated with a malignant melanoma cell line B16F10 (1×10^6) through a tail vein. After 24 hours from the inoculation, pachastrissamine was inoculated, and also, in a control group, PBS was inoculated in the same amount. Pachastrissamine was inoculated once per 4 days (three times), and on the 14th day from the inoculation of cells, the mouse was dissected to extract the lung. The extracted lung was immersed in 4% formalin solution for 16 hours or more, and washed for 16 hours or more. After the washing, the extracted lung was photographed, and other tissues were embedded in paraffin to make a block. Then, a tissue slice with a thickness of […] was prepared. The tissue slice was subjected to a deparaffin process for H&E (Hematoxylin & Eosin) staining, and then sequentially reacted with 100%, 90%, 80%, 70%, and 60% alcohol solutions to complete the hydration reaction. The completely hydrated slice was subjected to H&E staining, and then reacted with the alcohol solutions in reverse order of the hydration reaction to perform a dehydration reaction. When the dehydration reaction was completed, the slice was fixed on a slide and observed by a microscope.

[3] = tested on: malignant melanoma cell line B16F10; test: MTT cell viability analysis (cytotoxicity), B16F10; assay type: cell-based; settings: 24 hours, FIG. 1
Procedure: Pachastrissamine's cytotoxicity on a HaCaT cell line and a malignant melanoma cell line was researched through MTT cell viability analysis.
First, each of a HaCaT cell line (German Cancer Research, obtained from prof. N. Fuseni, Germany), and two kinds of malignant melanoma cell lines, B16F10 (B16) and A375 were inoculated into a DMEM (Dulbecco's Modified Eagle's Medium) culture medium added with 10% FBS (Thermo Fisher Scientific Inc.), 100 unit/ml penicillin, and 100 μg/ml streptomycin, and then cultured in a CO2 incubator (Form a Scientific, Inc.) (37° C., 5%).
The cultured HaCaT, B16F10, and A375 cells were plated onto a 96-well plate at a concentration of 5×10^4 cells/well, and cultured in a CO2 incubator (37° C., 5%) for 24 hours. The cells in respective wells were treated with pachastrissamine and phytosphingosine at various concentrations of 0, 0.9, 1.8, 3.7, 7.5, 10 μg/ml, and cultured in a CO2 incubator (37° C., 5%) for 24 hours. After the culturing, in a state where the culture medium existed, each well was added with 5 mg/ml MTT reagent at a concentration of 20 μl/[…], and cultured in an incubator for 2 hours. After 2 hours, the culture medium was removed, and each well was added with 150 μl of DMSO (dimethyl sulfoxide). Then, a spectrophotometer was used to measure the absorbance at 540 nm, thereby analyzing the cell viability. Herein, the cell viability was represented as a relative value with respect to 100% of cell viability in a control group not treated with pachastrissamine and phytosphingosine.

[4] = tested on: HaCaT cell; test: Phase-contrast microscope morphology analysis of surviving cells; assay type: cell-based, human; settings: HaCaT, 24 hours
Procedure: HaCaT, B16F10 and A375 cell lines were cultured in the same manner as described in Example 1. The cultured HaCaT cell line was plated onto a 60 mm plate at a concentration of 5×10^4 cells/well, and cultured in a CO2 incubator (37° C., 5%) for 24 hours. The cultured respective cells were divided into 4 groups. One group was added with only pachastrissamine (PA) at a concentration of 10 μg/ml; another group was added with lithium chloride (apoptosis inhibiting material) (at a final concentration of 300 nM) as well as pachastrissamine at a concentration of 10 μg/ml (PA+Li); and a third group was added with only lithium chloride (Li). The last group was a negative control group (Con) and was added with nothing. These groups were cultured in a CO2 incubator (37° C., 5%) for 24 hours, and then the number of cells were measured in the same manner as described in Example 2-2.
The four groups of HaCaT cell samples were washed with PBS, and then surviving cells were subjected to morphology analysis through a phase-contrast microscope (see FIG. 2f).

Structure (SMILES): CCCCCCCCCCCCCC[C@@H]1OC[C@H](N)[C@@H]1O [pachastrissamine]
- apoptosis (TUNEL positive) among observed cell nuclei (DAPI stained) [1]: most of observed cell nuclei showed apoptosis
- malignant melanoma metastasis to the lung compared to control group [2]: significantly inhibited
- cell viability (number of surviving cells) with increasing concentration ([3]; 0, 0.9, 1.8, 3.7, 7.5, 10 μg/ml): the number of surviving cells was reduced
- cytotoxicity compared with phytosphingosine [3]: lower cytotoxicity than phytosphingosine
- number of surviving cells compared to negative control group ([4]; 10 μg/ml, phase-contrast microscope, FIG. 2f): the number of surviving cells was significantly reduced
- cell division extent increased by lithium chloride, effect of pachastrissamine ([4]; pachastrissamine 10 μg/ml + lithium chloride 300 nM): inhibited

Reference: US8609718B2, “Pharmaceutical composition used in treatment of hyperproliferative skin conditions and malignant melanomas comprising pachastrissamine as active ingredient” (Catholic University Industry Academy Cooperation Foundation, priority 2009, dated 2013)
